We go through 1 compound from ChEMBL document CHEMBL5321216, “Discovery of bipyridine amide derivatives targeting pRXRα-PLK1 interaction for anticancer therapy” (Eur J Med Chem, 2023).

Data set [1] in a line: Selectivity index, ratio of IC50 for human MCF7 cells to IC50 for human MDA-MB-231 cells. The class given is toxicity.
In data set [2] the test system is A549. The data set is described as follows: Induction of apoptosis in human A549 cells assessed as early apoptotic cells at 250 nM incubated for 24 hrs by annexin V-FITC/PI staining based flow cytometry analysis (reference value: 0.78%). The class given is functional. Background: In flow cytometry, cells or beads pass a laser one at a time.
Data set [3] has as its system A549. The data set is described as follows: Induction of cell cycle arrest in wild type human A549 cells assessed as accumulation of cells at S phase at 125 nM incubated for 12 hrs by DAPI staining based flow cytometry analysis (reference value: 41.12 %). It counts as functional.
For data set [4], the system named is MDA-MB-231. Nature of the data set: Induction of apoptosis in human MDA-MB-231 cells assessed as dead cells at 31.25 nM incubated for 24 hrs by annexin V-FITC/PI staining based flow cytometry analysis (reference value: 0.69%). It counts as functional.
In data set [5] the test system is A549. Nature of the data set: Induction of cell cycle arrest in human A549 cells assessed as accumulation of cells at G2 phase at 31.25 nM incubated for 12 hrs by flow cytometry analysis (reference value: 8.62%). The class given is functional.
Data set [6] deals with A549. The data set is described as follows: Induction of apoptosis in human A549 cells assessed as early apoptotic cells at 31.25 nM incubated for 24 hrs by annexin V-FITC/PI staining based flow cytometry analysis (reference value: 0.78%). The class given is functional.
For data set [7], the system named is MDA-MB-231. The data set is described as follows: Antitumor activity against human MDA-MB-231 cells xenografted in BALB/c nude mouse assessed as tumor growth inhibition at 25 mg/kg/day, ip administered for 15 days and measured once a day relative to control. The note with it: MDA-MB-231, 360 h, time 15 day, read-out: TGI. It counts as functional. For orientation: Xenograft models place foreign cells or tissue in a host animal.

The test system of data set [8] is A549. Nature of the data set: Induction of apoptosis in human A549 cells assessed as live cells at 31.25 nM incubated for 24 hrs by annexin V-FITC/PI staining based flow cytometry analysis (reference value: 93.2%). It counts as functional.
Data set [9] has as its system A549. Nature of the data set: Induction of cell cycle arrest in human A549 cells assessed as accumulation of cells at G2 phase at 125 nM incubated for 12 hrs by flow cytometry analysis (reference value: 8.62%). The class given is functional.
Data set [10] deals with MDA-MB-231. Nature of the data set: Induction of cell cycle arrest in human MDA-MB-231 cells assessed as accumulation of cells at G1 phase at 125 nM incubated for 12 hrs by flow cytometry analysis (reference value: 43.2%). The class given is functional.
Data set [11] deals with A549. Nature of the data set: Induction of cell cycle arrest in wild type human A549 cells assessed as accumulation of cells at G2 phase at 125 nM incubated for 12 hrs by DAPI staining based flow cytometry analysis (reference value: 21.99 %). The class given is functional.
Data set [12] can be described thus: Selectivity index, ratio of IC50 for human HCC1937 cells to IC50 for human MDA-MB-231 cells. It counts as functional.
The test system of data set [13] is A549. Nature of the data set: Antiproliferative activity against human A549 cells assessed as inhibition of cell proliferation incubated for 72 hrs by MTT assay. The note with it: A549, 72 h. The class given is functional, cell-based.
The nature of data set [14]: Selectivity index, ratio of IC50 for human HepG2 cells to IC50 for human MDA-MB-231 cells. It counts as functional.
Data set [15] deals with A549. Nature of the data set: Induction of apoptosis in human A549 cells assessed as live cells at 125 nM incubated for 24 hrs by annexin V-FITC/PI staining based flow cytometry analysis (reference value: 93.2%). The class given is functional.

On to `O=C(/C=C/c1ccccc1)Nc1cc(-c2ccnc(N3CCC(CO)CC3)c2)ccn1`, for which the results for the “Ratio IC50” value in data set [1], in data set [12] and in data set [14] were 146.5, 35.06 and 4.81, respectively. Further, the Activity in [2] was determined as 31.3%; in [3], 18.11%; in data set [4], 0.93%; in data set [5], 8.76%; in data set [6], 6.28%; in [8] it was 70.9%. Besides, the Activity in data set [9] came out at 46.39%; in data set [10], 0.07%; in [11], 79.66%; in data set [15] it was 52%. Further, the inhibition in vivo at 25 mg/kg/day in [7] worked out at 59.3%. In addition, in data set [13], the IC50 turned out to be 201 nM.

As a reminder, the IC50 is the midpoint of a concentration-inhibition curve.
